This is an account of results in PubChem BioAssay AID330 (DTP/NCI, 2004).

This test deals with P388 leukemia ip, CD2F1 mice, survival T/C. Nature of the test: NCI In Vivo Anticancer Drug Screen. Data for tumor model P388 Leukemia (intraperitoneal) in CD2F1 (CDF1) mice. As to conditions: endpoint: median survival time, higher = longer survival. In short, it runs like this:
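Mice carrying the transplanted tumor received test compound or vehicle. Survival was recorded in each group, and the value is the treated-group measurement divided by that of the vehicle-treated control group.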

[1] abbreviates: dose: 50.0 mg/kg/injection, schedule: Q01DX009 (ip), vehicle: saline with Tween-80.
Where [2] appears, read: dose: 50.0 mg/kg/injection, schedule: Q01DX005 (ip), vehicle: Klucel (hydroxypropylcellulose) (HPC).
Where [3] appears, read: dose: 200.0 mg/kg/injection, schedule: Q01DX005 (ip), vehicle: Klucel (hydroxypropylcellulose) (HPC).
Where [4] appears, read: dose: 60.0 mg/kg/injection, schedule: Q01DX005 (ip), vehicle: Klucel (hydroxypropylcellulose) (HPC).

Several values for one entry are separate records, joined by “and”; a condition that tells them apart may be missing. Equal values may be shown once. Toxic doses and inconclusive results are not listed.

In the case of `NCC(=O)NCC(=O)NC(CCCN=C(N)N)C(=O)O` (stereo unspecified), the T/C (dose: 50.0 mg/kg/injection, schedule: Q01DX005 (ip), vehicle: saline) is 100 % of control; the T/C (dose: 100.0 mg/kg/injection, schedule: Q01DX005 (ip), vehicle: saline) was 103 % of control; the T/C (dose: 200.0 mg/kg/injection, schedule: Q01DX005 (ip), vehicle: saline) is 99 % of control.
On to `COc1ccc(/C=C/C(=O)c2ccccc2)cc1OC`, for which the T/C runs as follows: under setting [1], 103 % of control; (dose: 100.0 mg/kg/injection, schedule: Q01DX009 (ip), vehicle: saline with Tween-80) 114 % of control; (dose: 200.0 mg/kg/injection, schedule: Q01DX009 (ip), vehicle: saline with Tween-80) 100 % of control.
For the compound `O=Cc1c(Cl)n(C(=O)c2ccc(F)cc2)c2ccccc12`, the T/C (dose: 100.0 mg/kg/injection, schedule: Q01DX001 (ip), vehicle: Klucel (hydroxypropylcellulose) (HPC)) was 97 % of control; the T/C (dose: 200.0 mg/kg/injection, schedule: Q01DX001 (ip), vehicle: Klucel (hydroxypropylcellulose) (HPC)) is 113 % of control; the T/C (dose: 400.0 mg/kg/injection, schedule: Q01DX001 (ip), vehicle: Klucel (hydroxypropylcellulose) (HPC)) was 96 % of control.
For the compound `O=C1c2cccc3cc([N+](=O)[O-])cc(c23)C(=O)N1CCN1CCN(CCN2C(=O)c3cccc4cc([N+](=O)[O-])cc(c34)C2=O)CC1`, the T/C is, setting by setting: (dose: 100.0 mg/kg/injection, schedule: Q04DX002 (ip), vehicle: saline with Tween-80) 95 % of control; (dose: 200.0 mg/kg/injection, schedule: Q04DX002 (ip), vehicle: saline with Tween-80) 98 % of control; (dose: 400.0 mg/kg/injection, schedule: Q04DX002 (ip), vehicle: saline with Tween-80) 90 % of control.
As for `O=C(NC1CCCCC1NC(=O)C12CC3CC(CC(C3)C1)C2)C12CC3CC(CC(C3)C1)C2` (stereo unspecified), the T/C runs as follows: (dose: 6.0 mg/kg/injection, schedule: Q01DX005 (ip), vehicle: Klucel (hydroxypropylcellulose) (HPC)) 95 % of control; (dose: 12.0 mg/kg/injection, schedule: Q01DX005 (ip), vehicle: Klucel (hydroxypropylcellulose) (HPC)) 88 % of control; under setting [2], 88 % of control; under setting [3], 92 % of control.
Consider `CCCCCN(CCCCC)CCCNc1c2c(nc3ccc(OC)cc13)CCCC2`, for which the T/C was 94 % of control (dose: 3.12 mg/kg/injection, schedule: Q01DX005 (ip), vehicle: saline); 103 % of control (dose: 6.25 mg/kg/injection, schedule: Q01DX005 (ip), vehicle: saline); 99 % of control (dose: 12.5 mg/kg/injection, schedule: Q01DX005 (ip), vehicle: saline).
With `CN1C(=O)OC(c2ccc(Cl)cc2)C1=O` (stereo unspecified), the T/C (dose: 25.0 mg/kg/injection, schedule: Q01DX005 (ip), vehicle: Klucel (hydroxypropylcellulose) (HPC)) was 100 % of control; the T/C under setting [2] is 100 % of control; the T/C (dose: 100.0 mg/kg/injection, schedule: Q01DX005 (ip), vehicle: Klucel (hydroxypropylcellulose) (HPC)) was 107 % of control; the T/C under setting [3] was 100 % of control.
For `CCCCCCCCN(CCCCCCCC)/N=C/c1c2c(O)c3c(O)c(C)c4c(c3c1O)C(=O)C(C)(O/C=C/C(OC)C(C)C(OC(C)=O)C(C)C(O)C(C)C(O)C(C)/C=C/C=C(C)C(=O)N2)O4` (stereo unspecified), the T/C runs as follows: under setting [4], 95 % of control; (dose: 120.0 mg/kg/injection, schedule: Q01DX005 (ip), vehicle: Klucel (hydroxypropylcellulose) (HPC)) 89 % of control; (dose: 240.0 mg/kg/injection, schedule: Q01DX005 (ip), vehicle: Klucel (hydroxypropylcellulose) (HPC)) 92 % of control.
On to `CC1SC(N)=NN=C1c1c(O)c2ccccc2oc1=O` (stereo unspecified), for which the T/C was 103 % of control (dose: 100.0 mg/kg/injection, schedule: Q04DX002 (ip), vehicle: Klucel (hydroxypropylcellulose) (HPC)); 98 % of control (dose: 200.0 mg/kg/injection, schedule: Q04DX002 (ip), vehicle: Klucel (hydroxypropylcellulose) (HPC)); 97 % of control (dose: 400.0 mg/kg/injection, schedule: Q04DX002 (ip), vehicle: Klucel (hydroxypropylcellulose) (HPC)).
As to `Clc1ccccc1CN1COc2c(ccc3ccccc23)C1`, the T/C runs as follows: (dose: 100.0 mg/kg/injection, schedule: Q04DX003 (ip), vehicle: Klucel (hydroxypropylcellulose) (HPC)) 95 % of control; (dose: 200.0 mg/kg/injection, schedule: Q04DX003 (ip), vehicle: Klucel (hydroxypropylcellulose) (HPC)) 100 % of control; (dose: 400.0 mg/kg/injection, schedule: Q04DX003 (ip), vehicle: Klucel (hydroxypropylcellulose) (HPC)) 104 % of control.
For `O=S(=O)(CCCl)c1ccc2ccccc2c1`, the T/C reads like this: (dose: 12.5 mg/kg/injection, schedule: Q01DX009 (ip), vehicle: Klucel (hydroxypropylcellulose) (HPC)) 118 % of control and 90 % of control; (dose: 25.0 mg/kg/injection, schedule: Q01DX009 (ip), vehicle: Klucel (hydroxypropylcellulose) (HPC)) 114 % of control; (dose: 50.0 mg/kg/injection, schedule: Q01DX009 (ip), vehicle: Klucel (hydroxypropylcellulose) (HPC)) 106 % of control and 117 % of control.
As to `CC1=C(C)C(=O)C2=C(OCCCO2)C1=O`, the T/C is, setting by setting: (dose: 15.0 mg/kg/injection, schedule: Q01DX005 (ip), vehicle: Klucel (hydroxypropylcellulose) (HPC)) 98 % of control; (dose: 30.0 mg/kg/injection, schedule: Q01DX005 (ip), vehicle: Klucel (hydroxypropylcellulose) (HPC)) 96 % of control; under setting [4], 98 % of control.
Take `CCC(Oc1c2ccoc2c(OC)c2oc(=O)cc(O)c12)C(=O)O` (stereo unspecified): the T/C (dose: 50.0 mg/kg/injection, schedule: Q01DX005 (ip), vehicle: saline with Tween-80) is 108 % of control; the T/C (dose: 100.0 mg/kg/injection, schedule: Q01DX005 (ip), vehicle: saline with Tween-80) is 95 % of control; the T/C (dose: 200.0 mg/kg/injection, schedule: Q01DX005 (ip), vehicle: saline with Tween-80) is 100 % of control.
On to `Cc1ccc(N=CN(C)C=Nc2ccc(C)cc2C)c(C)c1`, for which the T/C by setting is: (dose: 50.0 mg/kg/injection, schedule: Q01DX009 (ip), vehicle: suspension in saline) 104 % of control; (dose: 100.0 mg/kg/injection, schedule: Q01DX009 (ip), vehicle: suspension in saline) 113 % of control; (dose: 200.0 mg/kg/injection, schedule: Q01DX009 (ip), vehicle: suspension in saline) 107 % of control.
As for `C/C([O-])=C(/c1nc(-c2ccc([N+](=O)[O-])o2)no1)[n+]1cc(C)ccc1C`, the T/C is 92 % of control (dose: 6.25 mg/kg/injection, schedule: Q01DX009 (ip), vehicle: saline with Tween-80); 94 % of control (dose: 12.5 mg/kg/injection, schedule: Q01DX009 (ip), vehicle: saline with Tween-80); 97 % of control (dose: 25.0 mg/kg/injection, schedule: Q01DX009 (ip), vehicle: saline with Tween-80); 94 % of control under setting [1].
On to `N=c1ccn2c(n1)OC1C(O)C(CO)OC12` (stereo unspecified), for which the T/C by setting is: (dose: 50.0 mg/kg/injection, schedule: Q01DX009 (ip), vehicle: saline) 200 % of control; (dose: 75.0 mg/kg/injection, schedule: Q01DX009 (ip), vehicle: saline) 156 % of control; (dose: 100.0 mg/kg/injection, schedule: Q01DX009 (ip), vehicle: saline sonified) 181 % of control; (dose: 100.0 mg/kg/injection, schedule: Q01DX009 (ip), vehicle: saline) 222 % of control; (dose: 150.0 mg/kg/injection, schedule: Q01DX009 (ip), vehicle: saline) 175 % of control; (dose: 160.0 mg/kg/injection, schedule: Q01DX005 (ip), vehicle: saline) 150 % of control. The T/C was 161 % of control (dose: 160.0 mg/kg/injection, schedule: Q01DX005 (iv), vehicle: saline); 168 % of control (dose: 200.0 mg/kg/injection, schedule: Q01DX009 (ip), vehicle: saline sonified); 272 % of control (dose: 200.0 mg/kg/injection, schedule: Q01DX009 (ip), vehicle: saline); 200 % of control (dose: 300.0 mg/kg/injection, schedule: Q01DX009 (ip), vehicle: saline); 170 % of control (dose: 320.0 mg/kg/injection, schedule: Q01DX005 (ip), vehicle: saline); 184 % of control (dose: 320.0 mg/kg/injection, schedule: Q01DX005 (iv), vehicle: saline). Further, the T/C is 181 % of control (dose: 400.0 mg/kg/injection, schedule: Q01DX009 (ip), vehicle: saline sonified); 272 % of control (dose: 400.0 mg/kg/injection, schedule: Q01DX009 (ip), vehicle: saline); 91 % of control (dose: 600.0 mg/kg/injection, schedule: Q01DX009 (ip), vehicle: saline); 203 % of control (dose: 640.0 mg/kg/injection, schedule: Q01DX005 (ip), vehicle: saline); 194 % of control (dose: 640.0 mg/kg/injection, schedule: Q01DX005 (iv), vehicle: saline); 181 % of control (dose: 800.0 mg/kg/injection, schedule: Q01DX009 (ip), vehicle: saline sonified).
